Test results reported in patent US12569452B2, “Ophthalmic compositions comprising F6H8” (NOVALIQ GMBH, priority 2017, dated 2026).

Assays:
Type in all cases: in vivo, human
[1] = tested on: Dry Eye Disease (DED) patients with MGD involvement; assay: Corneal fluorescein staining (NEI scale), Phase 2 study Example 3; details: vs saline
Description: (§1) A Phase 2, Multi-Center, Randomized, Double-Masked, Saline-Controlled Study to Evaluate the Effect of 1-Perfluorohexyloctane (NOV03; F6H8) at two different dosing regimens on signs and symptoms of Dry Eye Disease (DED). The study was performed at 11 investigational cites in the United States. The study was reviewed and approved by the respective ethics committees and registered at www.clinicaltrials.gov (NCT03333057).
(§2) The study is performed to evaluate the safety, efficacy and tolerability of F6H8 at two different dosing regimens compared to saline on signs and symptoms of Dry Eye Disease.
(§3) Study subjects receive one of the following treatments over a period of 4 visits on day 1, 15, 30 and 60: • (1) F6H8 (NOV03), 4 times daily (QID); • (2) F6H8 (NOV03), 2 times daily (BID); • (3) Saline solution (0.9% sodium chloride solution), 4 times daily (QID); • (4) Saline Solution (0.9% sodium chloride solution), 2 times daily (BID).
(§4) In the BID treatment, study subjects instil bilaterally one drop in each lower eyelid conjunctival fornix two times daily. The instilled drop volume of F6H8 is about 10-12 μl, translating to a single dose of 13.5-16.2 mg (with F6H8 density=1.35 g/ml). […]

[2] = tested on: Dry Eye Disease (DED) patients with MGD involvement; assay: Ocular Surface Disease Index (OSDI), Phase 2 study Example 3; details: BID, 2, 4 and 8 weeks
Description: as §1
The study is performed to evaluate the safety, efficacy and tolerability of F6H8 at two different dosing regimens compared to saline on signs and symptoms of Dry Eye Disease. […]
The subjects were asked to fill out an OSDI© questionnaire (see for example, Schiffman R M, et al., Arch Ophthalmol. 2000; 118:615-621) consisting of 12 questions, and asked to respond on a scale of 0 to 4, with 0 corresponding to ‘none of the time’ and 4 corresponding to “all of the time”. The questions assess dry eye symptoms experienced by the patient within past week in terms of the following ocular symptoms: sensitivity to light, gritty sensation, pain or sore eyes, blurriness, and poor vision; vision-related function, in terms of problems in: reading, driving at night, working on a computer or bank machine, watching television; and environmental factors or triggers i.e. discomfort during: windy conditions, places with low humidity, and areas with air condition. […]

[3] = tested on: Dry Eye Disease (DED) patients with MGD involvement; assay: Eye Dryness Score on Visual Analog Scale (VAS), Phase 2 study Example 3; details: BID, 2, 4 and 8 weeks
Description: as §1, §2, §3, §4

[4] = tested on: patients with mild to moderate dry eye disease; assay: Lipid Layer Thickness (LLT) of the tear film with LipiView Interferometer, Example 2; details: for Lipid Layer Thickness measured in the morning before first daily dosing (relative change from baseline in %): 4 times daily dosing
Description: (§5) The study is conducted to evaluate the influence of 1-perfluorohexyl-octane (F6H8, NovaTears®) on tear film thickness in patients with mild to moderate dry eye disease. Herein the administration of 1-perfluorohexyl-octane is compared to Hydrabak (0.9% sodium chloride, Laboratoires Théa).
(§6) 48 patients (safety population) are randomized (1:1 ratio) to receive either F6H8 or Hydrabak. One drop of F6H8 (droplet volume=10-11 μl) or Hydrabak is instilled in each eye 4 times daily for 30 days. DED relevant clinical measures are recorded at Visit 1 (day 0, baseline), Visit 2 (15±2 days) and Visit 3 (30±3 days). The primary outcome variable includes Tear film thickness (TFT) as measured with high resolution optical coherence tomography (OCT), while secondary outcome variables comprised Lipid Layer Thickness (LLT) of the tear film (with LipiView Interferometer), Non-Invasive Tear Break Up Time (NITFBUT) with Bon Antares Tear Film Topographer, Dynamic Meibomian Gland Imaging (DMI) with LipiView Interferometer, Blink frequency (with LipiView interferometer), Dry Eye Visual Analogue Scale (VAS), Corneal fluorescein staining, Conjunctival lissamine green staining, Schirmer I test, Tear Film Break Up Time (TFBUT), Ocular Surface Disease Index (OSDI), Adverse Events (AEs) and others.

[5] = tested on: Dry Eye Disease (DED) patients with MGD involvement; assay: Adverse events, Phase 2 study Example 3; details: daily dose 20-24 μl
Description: as §1, §2, §3
In the BID treatment, study subjects instil bilaterally one drop in each lower eyelid conjunctival fornix two times daily. The instilled drop volume of F6H8 is about 10-12 μl, translating to a single dose of 13.5-16.2 mg (with F6H8 density=1.35 g/ml).

[6] = tested on: patients with mild to moderate dry eye disease; assay: Corneal fluorescein staining, Example 2; details: 4 times daily, 4 weeks
Description: as §6

[7] = tested on: patients with mild to moderate dry eye disease; assay: Adverse events, Example 2; details: 4 times daily for 30 days; all adverse effects mild, low incidence
Description: as §6

[8] = tested on: patients with mild to moderate dry eye disease; assay: Tear film thickness (TFT) by high resolution optical coherence tomography, Example 2
Description: as §5, §6

For `CCCCCCCCC(F)(F)C(F)(F)C(F)(F)C(F)(F)C(F)(F)C(F)(F)F` [F6H8, 1-perfluorohexyloctane], the “Total corneal fluorescein staining (reduction of ocular surface damage of total corneal region)” value ([1]; BID dosing regimen, 8 weeks) was “met its prespecified primary efficacy endpoint”, the “Reduction of ocular surface damage of central, nasal and temporal corneal region” value ([1]; BID, fluorescein staining NEI scale) was “clear improvements” and the “Symptoms of dryness by OSDI score incl. total OSDI score over placebo” value [2] was “highly statistical significant improvement”. The “VAS symptoms of dryness (severity, frequency, awareness of dryness, blurred vision, sensitivity to light) over placebo” value [3] was “highly statistical significant improvement”, the “Lipid Layer Thickness measured in the morning before first daily dosing (relative change from baseline in %)” value ([4]; 2 weeks) was 6.83% and the “Lipid Layer Thickness measured in the morning before first daily dosing (relative change from baseline in %)” value ([4]; 4 weeks) was 4.10%. For the same molecule, the “LLT relative change from baseline, estimated least square mean difference F6H8 vs Hydrabak (post hoc MMRM)” value ([4]; values recorded before instillation) was 16.34%, the “Adverse effects, 2-times daily schedule (BID)” value [5] was “trend towards less adverse effects” and the “Corneal Staining reduction compared with Hydrabak group” value [6] was “tended to be stronger reduced”. The “Safety and tolerability in patients with DED” value [7] was “safe and well tolerated”, the “Tear Film Thickness after continuous dosing 4-times daily (relative change from baseline in %)” value ([8]; 2 weeks, 10 min) was 8.71% and the “Tear Film Thickness after continuous dosing 4-times daily (relative change from baseline in %)” value ([8]; 2 weeks, 20 min) was 8.57%. For the same molecule, the “Tear Film Thickness after continuous dosing 4-times daily (relative change from baseline in %)” value ([8]; 2 weeks, before instillation) was 1.43%, the “Tear Film Thickness after continuous dosing 4-times daily (relative change from baseline in %)” value ([8]; 4 weeks, 10 min) was 9.12% and the “Tear Film Thickness after continuous dosing 4-times daily (relative change from baseline in %)” value ([8]; 4 weeks, 20 min) was 10.35%. For the same molecule, the “Tear Film Thickness after continuous dosing 4-times daily (relative change from baseline in %)” value ([8]; 4 weeks, before instillation) was 3.22%, the “Relative change (%) in Tear film thickness from baseline, F6H8 compared with Hydrabak (primary MMRM analysis)” value ([8]; 48 subjects of the safety population) was “significantly higher” and the “Tear film thickness, least squares mean difference F6H8 vs Hydrabak (MMRM, post-hoc)” value ([8]; Visit 1, safety population 48 subjects) was 1.29%. The “Tear film thickness, least squares mean difference F6H8 vs Hydrabak (MMRM, post-hoc)” value ([8]; Visit 2, safety population 48 subjects) was 4.33%, the “Tear film thickness, least squares mean difference F6H8 vs Hydrabak (MMRM, post-hoc)” value ([8]; Visit 3, reached significance) was 6.42% and the “Tear Film Thickness at study start (relative change from baseline in %)” value ([8]; single dose on Visit 1, 10 min after instillation) was 13.39%. The “Tear Film Thickness at study start (relative change from baseline in %)” value ([8]; single dose on Visit 1, 20 min after instillation) was 6.63%, the “Tear Film Thickness at study start (relative change from baseline in %)” value ([8]; single dose on Visit 1, 40 min after instillation) was 4.64% and the “Tear Film Thickness at study start (relative change from baseline in %)” value ([8]; single dose on Visit 1, 60 min after instillation) was 4.03%. The “Tear Film Thickness at study start (relative change from baseline in %)” value ([8]; single dose on Visit 1, 120 min after instillation) was 4.76% and the “Tear Film Thickness at study start (relative change from baseline in %)” value ([8]; single dose on Visit 1, 240 min after instillation) was 3.28%.
